Like-named read-outs stand apart in the source and are kept apart here.
Assays:
[1] = system: NZM mice; assay: Urinalysis: total urine protein (proteinuria), NZM mice (Example 2); type: in vivo, mouse
[2] = system: NZM mice; assay: Splenomegaly (spleen mass), NZM mice (Example 2); type: in vivo, mouse
[3] = system: MRL/lpr mice; assay: Antinuclear antibody (ANA) ELISA (anti-chromatin, anti-Smith Ag, anti-dsDNA IgG), serum of MRL/lpr mice; type: in vivo, mouse
Text: For all ANA ELISA assays, values below the limit of detection set by the lowest point along the standard or set by the manufacturer are considered out of range and are not estimated, but assumed the lowest point along the standard curve for that particular assay.

[4] = system: MRL/lpr mice; assay: Survival / mortality, MRL/lpr mice (Example 1); details: for EOS survival, true EOS mouse percentage from starting population: vehicle 92
Experimental: Six week old lupus-prone, female, MRL/lpr (Jackson Labs, #000485) and non-lupus prone control MRL/MpJ (Jackson Labs, #000486) mice are obtained from Jackson Laboratories (Bar Harbor, Me.) at 6-weeks of age. All mice are maintained on a 24 hour light/dark cycle, with food and water available ad libitum. All experimental animal procedures are approved by and in accordance to the regulations of the Institutional Animal Care and Use Committee (IACUC) of Cephalon, Inc; approved IACUC protocol #03-040 and #03-03-041.
Due to this impaired tolerance mechanism, a percentage of all T and B cells that enter the periphery have a high likelihood of responding to self protein/tissues and thus initiate autoimmunity early in life. The MRL/lpr model mice develop several chronic inflammatory disease-like symptoms that are characteristic of early and late lupus including the generation of anti-nuclear antibodies, arthritis, dermatological manifestations, immunocomplex-mediated glomerulonephritis leading to proteinuria and eventual death. Lesser characterized phenomenon are CNS and cardiac manifestations, both of which are more common in humans. […] Mortality is higher in the females and occurs around 25 weeks of age, renal disease includes glomerulonephritis, glomerular infiltrates, sclerosis and vasculitis. Both splenomegaly and lymphomegaly associated with dermatitis can also be observed.
MRL/lpr mice are first randomized, initial bleeds collected, and body weights recorded for baseline measurements (FIG. 1). All mice are individually ear tagged and are monitored throughout the entire experiment (e.g., “Group#-Cage letter-Mouse#”, so “3B5”=Group 3 (G3), cage B, mouse #5). Mice are age-matched and treatment started at 6-8 weeks of age. Cheek bleeds and urine collection continues weekly throughout the experiment. Mice are individually tracked for several parameters including cytokine and ANA levels, proteinuria, body mass, lymphomegaly, general health, and mortality. All parameters are evaluated bi-monthly except mortality which is monitored daily. All groups consist of a minimum of at least 10-12 mice per group. Ex vivo experiments include flow cytometry analyses for plasma cells, serum complement C3 and ANA levels; urine protein and leukocytes, serum cytokine profiling, renal histo pathology, and determination of compound levels (pharmacokinetics (PK)) in the spleen, kidney and plasma. Mice are tracked on an individual basis. For all data, mice are grouped into populations and data graphed as mean±SEM. End-stage readouts are analyzed as described in the MATERIALS AND METHODS section (above) and in FIG. 1.
Vehicle alone is provided orally twice weekly (p.o.). Both proteasome inhibitors are suspended in the vehicle solution. Bi-monthly bleeds and urine are collected and frozen at […] until assayed. End analyses include kidney histology, splenocyte B-cell Elispots, flow cytometry for B and T cell populations, PD markers, serum cytokines, antibody and complement levels. In addition, urine proteinuria is determined for all animals.
In group two (G2), COMPOUND A was administered at a dose of 3 mg/kg iv twice weekly. In group three (G3), COMPOUND A was administered at a dose of 10 mg/kg p.o. twice weekly. […] In the new group five (G5), bortezomib was administered at a dose of 0.3 mg/kg iv twice weekly. Dexamethasone was administered at a dose of 1.5 mg/kg/2d (M, W, F) ip. Vehicle was 3% DMSO/10% Solutol/87% PBS. In those instances in which mice could not be injected via the iv route, agents were administered ip as noted in Table 1.

[5] = system: NZM mice; type: in vivo, mouse

Question: What does the source list for `CC(C)C[C@H](NC(=O)[C@H](Cc1ccccc1)NC(=O)c1cnccn1)B(O)O` [bortezomib, reference compound]?
Answer: Urine proteinuria AUC, percent change vs vehicle ([1]; G3 0.3 mg/kg ip, 1× wk): 30%; Urine proteinuria AUC, percent change vs vehicle ([1]; G4 0.3 mg/kg ip, 2× wk): −57%; Spleen mass EOS, percent change vs vehicle ([2]; G3 0.3 mg/kg ip, 1× wk): +14%; Spleen mass EOS, percent change vs vehicle ([2]; G4 0.3 mg/kg ip, 2× wk): −19%; ANA AUC Smith Ag, percent change vs vehicle ([3]; G4: 0.5 mg/kg iv, 1× wk): −84%; ANA AUC chromatin, percent change vs vehicle ([3]; G4: 0.5 mg/kg iv, 1× wk): −82%; ANA AUC dsDNA, percent change vs vehicle ([3]; G4: 0.5 mg/kg iv, 1× wk): −88%; ANA AUC Smith Ag, percent change vs vehicle ([3]; G5: 0.3 mg/kg iv, 2× wk): −58%; ANA AUC chromatin, percent change vs vehicle ([3]; G5: 0.3 mg/kg iv, 2× wk): −58%; ANA AUC dsDNA, percent change vs vehicle ([3]; G5: 0.3 mg/kg iv, 2× wk): −76%; anti-Smith Ag IgG ANA level decrease vs vehicle at EOS ([3]; Group 4): 74%; anti-dsDNA IgG ANA decrease vs vehicle ([3]; Group 4 (iv)): 82%; anti-dsDNA IgG ANA decrease vs vehicle ([3]; Group 5 (iv)): 58%; anti-chromatin IgG level decrease vs vehicle ([3]; weekly bortezomib dose): 64%; decrease in survival over that of vehicle at EOS ([4]; 0.3 mg/kg iv twice weekly): 19%; decrease in survival over that of vehicle at EOS ([4]; 0.5 mg/kg iv once weekly): 2%; EOS survival, true EOS mouse percentage from starting population ([4]; G4: 0.5 mg/kg iv, 1× wk): 90%; EOS survival, true EOS mouse percentage from starting population ([4]; G5: 0.3 mg/kg iv, 2× wk): 73%; tolerability of initial dose ([4]; initial G4 dose 0.5 mg/kg iv twice weekly): animal mortality; Cytokine IL-12 AUC, percent change vs vehicle ([5]; G3 0.3 mg/kg ip, 1× wk): −32%; Cytokine IL-13 AUC, percent change vs vehicle ([5]; G3 0.3 mg/kg ip, 1× wk): −66%; Cytokine IL-17A AUC, percent change vs vehicle ([5]; G3 0.3 mg/kg ip, 1× wk): −73%; Cytokine IP-10 AUC, percent change vs vehicle ([5]; G3 0.3 mg/kg ip, 1× wk): −50%; Cytokine MIG AUC, percent change vs vehicle ([5]; G3 0.3 mg/kg ip, 1× wk): −67%; Cytokine TNFα AUC, percent change vs vehicle ([5]; G3 0.3 mg/kg ip, 1× wk): 12%; Cytokine IL-12 AUC, percent change vs vehicle ([5]; G4 0.3 mg/kg ip, 2× wk): −55%; Cytokine IL-13 AUC, percent change vs vehicle ([5]; G4 0.3 mg/kg ip, 2× wk): −65%; Cytokine IL-17A AUC, percent change vs vehicle ([5]; G4 0.3 mg/kg ip, 2× wk): −85%; Cytokine IP-10 AUC, percent change vs vehicle ([5]; G4 0.3 mg/kg ip, 2× wk): −59%; Cytokine MIG AUC, percent change vs vehicle ([5]; G4 0.3 mg/kg ip, 2× wk): −72%; Cytokine TNFα AUC, percent change vs vehicle ([5]; G4 0.3 mg/kg ip, 2× wk): −29%; p, serum IL-12p40/p70 concentration vs G9 Vehicle 1× wk ip ([5]; G5 0.3 mg/kg 1× wk ip): NS (NS = not significant (p > 0.05)); p, serum IL-13 concentration vs G9 Vehicle 1× wk ip ([5]; G5 0.3 mg/kg 1× wk ip): NS (NS = not significant (p > 0.05)); p, serum IL-17A concentration vs G9 Vehicle 1× wk ip ([5]; G5 0.3 mg/kg 1× wk ip): NS (NS = not significant (p > 0.05)); p, serum IP-10 concentration vs G9 Vehicle 1× wk ip ([5]; G5 0.3 mg/kg 1× wk ip): p < 0.001; p, serum MIG concentration vs G9 Vehicle 1× wk ip ([5]; G5 0.3 mg/kg 1× wk ip): NS (NS = not significant (p > 0.05)); p, serum TNFα concentration vs G9 Vehicle 1× wk ip ([5]; G5 0.3 mg/kg 1× wk ip): NS (NS = not significant (p > 0.05)); p, serum IL-12p40/p70 concentration vs G9 Vehicle 1× wk ip ([5]; G6 0.3 mg/kg 2× wk ip): p < 0.05; p, serum IL-13 concentration vs G9 Vehicle 1× wk ip ([5]; G6 0.3 mg/kg 2× wk ip): NS (NS = not significant (p > 0.05)); p, serum IL-17A concentration vs G9 Vehicle 1× wk ip ([5]; G6 0.3 mg/kg 2× wk ip): NS (NS = not significant (p > 0.05)); p, serum IP-10 concentration vs G9 Vehicle 1× wk ip ([5]; G6 0.3 mg/kg 2× wk ip): p < 0.001; p, serum MIG concentration vs G9 Vehicle 1× wk ip ([5]; G6 0.3 mg/kg 2× wk ip): NS (NS = not significant (p > 0.05)); p, serum TNFα concentration vs G9 Vehicle 1× wk ip ([5]; G6 0.3 mg/kg 2× wk ip): NS (NS = not significant (p > 0.05)); serum IL-12 decrease vs vehicle, range over the substance's groups ([5]; once and twice weekly groups): 32-55%; serum CXCL9/MIG as compared to CTX ([5]; p<0.001 vs CTX, but not to DEX): decreased; IL-13 serum levels compared to vehicle ([5]; treatment groups): No significant change; IL-17A serum levels compared to vehicle ([5]; treatment groups): No significant change

From patent US9340559B2, “Proteasome inhibitor delanzomib for use in the treatment of lupus” (Cephalon, Inc., priority 2011, dated 2016)
